The values that follow come from patent US5428019A, “Bombesin analogs” (Merrell Dow Pharmaceuticals Inc., priority 1994, dated 1995).

Where two headings read alike, the source gives them in different places. Where a SMILES comes first, the peptide text is derived from it. [ ]: non-standard residue; d: D form. The star is where a group is joined. Pheψ(CH2S)LeuNH2 = CC(C)C[C@H](SC[C@H](Cc1ccccc1)N*)C(N)=O; X1 = CC(C)C[C@@H](C(N)=O)N(C)C[C@H](Cc1ccccc1)N*; pGlu = O=C1CC[C@@H](C(=O)O)N1

For experiment [1], the target named is T1, Bombesin Receptor (Mus musculus, UniProt P21729).
T1 construct: Pancreata from mice were chopped at 350 μm with a tissue chopper and pooled; from tissue; host or cells: chopped mouse pancreas
T1 sequence (P21729 whole entry): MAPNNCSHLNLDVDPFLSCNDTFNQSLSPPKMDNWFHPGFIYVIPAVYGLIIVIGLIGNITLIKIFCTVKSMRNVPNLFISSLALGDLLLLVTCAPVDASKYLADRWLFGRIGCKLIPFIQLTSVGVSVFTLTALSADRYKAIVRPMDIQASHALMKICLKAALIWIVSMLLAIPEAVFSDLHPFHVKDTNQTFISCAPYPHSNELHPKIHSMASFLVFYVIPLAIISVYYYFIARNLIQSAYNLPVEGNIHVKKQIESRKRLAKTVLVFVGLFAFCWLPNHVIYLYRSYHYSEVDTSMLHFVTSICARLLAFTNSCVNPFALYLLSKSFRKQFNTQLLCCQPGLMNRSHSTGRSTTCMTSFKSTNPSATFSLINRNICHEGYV
The experiment can be described thus: Phosphatidylinositol turnover in chopped mouse pancreas. In kind it is cell-based. Set-up: key to PI Turnover Agonist: (+) represents agonist activity; (-) indicates no agonist activity. As to conditions: for PI Turnover % Inhibition: antagonist activity, referenced to the stimulation produced by 100 nM GRP. The method, then:
Pancreata from mice were chopped at 350 μm with a tissue chopper and pooled. The chopped tissue was washed twice with oxygenated Krebs-Hepes, then incubated for 30 minutes in 37° C. oxygenated Krebs-Hepes buffer with fresh buffer after 15 minutes. The tissue was then incubated in this buffer containing 200 μCi of [^3 H] inositol at 37° C. for 1 hour. The tissue was then washed twice and incubated for another 30 minutes in oxygenated Krebs-Hepes (containing 10 mM Li^+) at 37° C. with a fresh buffer change after 15 minutes. Portions of the tissue mass (approximately 10 mg per assay tube) were then placed in Li^+ buffer with protease inhibitors, (40 μg/ml bacitracin, 4 μg/ml leupeptin, 4 μg/ml chymostatin, 8 μg/ml thiorphan), 0.1% BSA, and 0.1-10 μM peptide in a final volume of 250 μl. After 60 minutes at room temperature, the phosphatidylinositol turnover was terminated by the addition of 940 μl chloroform:methanol (1:2), followed by 310 μl chloroform, followed by 310 μl water. Each tube was then vortexed for 5 seconds and then centrifuged at 2500 x g for 10 minutes to separate the phases. 50 μl of the bottom phase (chloroform) was withdrawn from each tube and placed in a counting vial, dried, and counted in scintillation fluid. 900 μl of the top (aqueous) phase were then mixed with 2.1 ml water and loaded onto a 0.5 ml Biorad AG-1X8 (formate) ion exchange column. The material on the columns was washed in order with: 1) 10 ml of water 2) 5 ml of 5 mM disodium tetraborate/60 mM sodium formate 3) 10 ml of 1 M ammonium formate in 0.1 M formic acid. The final (third) wash was collected and one ml was mixed with 14 ml of Bio-Safe scintillant and counted. The ratio of these counts (total inositol phosphates) to the corresponding organic phase counts (inositol incorporated into the tissue) was then calculated for each sample. The ratios in the presence of test compound and/or standards were then compared to the ratios for control tubes (i.e., no stimulating agonist). The abilities of test compounds to stimulate phosphatidyl-inositol turnover were determined with the aid of a computer program. […] The ordinate (y-axis) indicates the observed PI turnover as a percentage of control. Values are mean±standard error of triplicate determinations.

For experiment [2], the system named is cell surface receptors that bind bombesin. The note with it: background section; read-out: KD of high-affinity cell surface receptors that bind bombesin; cited from earlier work.
In experiment [3] the target is T2, bombesin/GRP receptor (Mus musculus, UniProt P21729).
T2 construct: The pancreata from one or more mice were pooled and homogenized; from tissue; host or cells: mouse pancreas membranes
T2 sequence (P21729 whole entry): as above
The experiment is described as follows: Competition for 125I-GRP binding to murine pancreatic membranes. The protocol: The pancreata from one or more mice were pooled and homogenized in 50 mM HEPES (pH 7.4) containing 120 mM NaCl, 5 mM KCl, 1 mM EDTA and protease inhibitors (1 μg/ml aprotinin, leupeptin, pepstatin; 4 μg/ml bacitracin, antipain, bestatin; 100 μM PMSF) at 4° C. and centrifuged at 37,500 X g for 15 minutes. The pellet was resuspended in 50 mM HEPES (pH 7.4) containing 10 mM EDTA, 300 mM KCl, and protease inhibitors, and then incubated for 30 minutes at 4° C. The suspension was centrifuged as above and the pellet was washed two times in 50 mM HEPES (pH 7.4) containing 8 μg/ml thiorphan and protease inhibitors, and again centrifuged. The tissue was then resuspended in incubation buffer (1 ml per 4 mg pancreas) and incubated for 15 minutes at room temperature, then 250 μl were added to each assay tube to commence the assay. […] The assay was allowed to proceed to equilibrium for 90 minutes at room temperature. After this time, the contents of each tube was rapidly filtered over Whatman GF/B filters presoaked in 0.1% polyethyleneimine and the filters were rapidly washed three times with ice-cold 50 mM HEPES (pH 7.4). Filter-bound radioactivity was quantitated in a gamma counter. […] Affinity and maximal binding were calculated with LIGAND (Biosoft, Cambridge, UK) (FIGS. 1 and FIG. 2)
The abscissa (x-axis) logarithmically indicates the concentration of agonists being tested.

In general, Kd refers to the free concentration of one partner at which half of the binding sites on the other are occupied at equilibrium, for simple one-to-one binding. For `CSCC[C@H](NC(=O)[C@H](CC(C)C)NC(=O)[C@H](Cc1cnc[nH]1)NC(=O)CNC(=O)[C@@H](NC(=O)[C@H](C)NC(=O)[C@H](Cc1c[nH]c2ccccc12)NC(=O)[C@H](CCC(N)=O)NC(=O)[C@H](CC(N)=O)NC(=O)CNC(=O)[C@H](CC(C)C)NC(=O)[C@H](CCCN=C(N)N)NC(=O)[C@H](CCC(N)=O)NC(=O)[C@@H]1CCC(=O)N1)C(C)C)C(N)=O` [Bombesin, pGlu--Gln--Arg--Leu--Gly--Asn--Gln--Trp--Ala--Val--Gly--His--Phe--Met--NH2], the “PI Turnover Agonist” value in experiment [1] is “+”. The Kd in experiment [2] was 1 nM.
Turning to `CC(C)C[C@@H](C(N)=O)N(C)C[C@H](Cc1ccccc1)NC(=O)[C@H](Cc1c[nH]cn1)NC(=O)CNC(=O)[C@@H](NC(=O)[C@H](C)NC(=O)[C@H](Cc1c[nH]c2ccccc12)NC(=O)[C@H](CCC(N)=O)NC(=O)[C@@H]1CCC(=O)N1)C(C)C` [[Phe^8 .psi.[CH2 N(CH3)]Leu^9]litorin] ([pGlu]QWAVGH-X1), the Kd in experiment [3] (duplicate, 20 pM 125I-GRP, two-site fit, read-out: Kd, high affinity class of sites (FIG. 2)) was 0.08 nM; in experiment [3] (duplicate, 20 pM 125I-GRP, two-site fit, read-out: Kd, low affinity class of sites (FIG. 2)), 16 nM; in experiment [3] (first of two values in the cell, mouse pancreas, averages of multiple experiments, read-out: Kd (nM), high affinity class of sites), 0.019 nM; in experiment [3] (second of two values in the cell, mouse pancreas, averages of multiple experiments, read-out: Kd (nM), low affinity class of sites), 23 nM. The “receptors in the high affinity state (FIG. 2)” value in experiment [3] (two-site fit, 20 pM 125I-GRP) is recorded as 20%. Besides, the “PI Turnover Agonist” value in experiment [1] is on record as “+”. Further, the “PI Turnover % Inhibition” value in experiment [1] is reported as -16%. The “PI turnover as a percentage of control (FIG. 3)” value in experiment [1] (triplicate determinations) is reported as “statistically significant (P<0.005) increase in PI turnover”.
In experiment [3] (Kd (nM), competitive binding, mouse pancreas, averages of multiple experiments), `CC(C)C[C@H](NC(=O)[C@H](CCCNC(=N)N)NC(=O)[C@H](CCC(N)=O)NC(=O)[C@@H]1CCC(=O)N1)C(=O)NCC(=O)N[C@@H](CC(N)=O)C(=O)N[C@@H](CCC(N)=O)C(=O)N[C@@H](Cc1c[nH]c2ccccc12)C(=O)N[C@@H](C)C(=O)N[C@H](C(=O)NCC(=O)N[C@@H](Cc1c[nH]cn1)C(=O)N[C@H](CS[C@@H](CC(C)C)C(N)=O)Cc1ccccc1)C(C)C` [[Phe^13 .psi.[CH2 S]Leu^14 bombesin, pGlu--Gln--Arg--Leu--Gly--Asn--Gln--Trp--Ala--Val--Gly--His--Phe.psi.[CH2 S]Leu--NH2] ([pGlu]QRLGNQWAVGH-{Pheψ(CH2S)LeuNH2}) came in with a Kd of 2.8 nM. The “PI Turnover % Inhibition” value in experiment [1] was determined as 54%.
